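How tested: cells in 96-well plates exposed to compound for 48 hours at five concentrations. GI50 is the concentration that inhibits growth by half. The concentration for full growth arrest is given as TGI.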
Columns and labels:
Assay in all cases: NCI anticancer screen, dose series, 48 h
HCT-116 colon = tested on: HCT-116 colon
SN12C renal = tested on: SN12C renal
M19-MEL melanoma = tested on: M19-MEL melanoma
HCC-2998 colon = tested on: HCC-2998 colon
COLO 205 colon = tested on: COLO 205 colon
OVCAR-4 ovarian = tested on: OVCAR-4 ovarian
786-0 renal = tested on: 786-0 renal
DMS 114 small cell lung = tested on: DMS 114 small cell lung
SK-MEL-2 melanoma = tested on: SK-MEL-2 melanoma
MCF7 breast = tested on: MCF7 breast

In the case of Cc1ccc(NC(=O)C(=O)C2C(=O)N(c3ccccc3)N=C2N)cc1C (configuration not stated), the TGI (HCT-116 colon) is reported as over 100 µM, the TGI (SN12C renal) is reported as over 100 µM and the TGI (M19-MEL melanoma) is reported as over 100 µM. It also gave a TGI (HCC-2998 colon) of over 100 µM, a TGI (COLO 205 colon) of over 100 µM and a TGI (OVCAR-4 ovarian) of over 100 µM. For the same molecule, the TGI (786-0 renal) was over 100 µM and the TGI (DMS 114 small cell lung) was over 100 µM.
In the case of CC(=O)OC(/C=C1/C=CC(=O)O1)COC(=O)c1ccccc1 (configuration not stated), the TGI (HCT-116 colon) is reported as over 31.2 µM, the TGI (SN12C renal) is reported as over 31.2 µM and the TGI (M19-MEL melanoma) is reported as over 31.2 µM. It also gave a TGI (HCC-2998 colon) of over 31.2 µM, a TGI (COLO 205 colon) of over 31.2 µM and a TGI (OVCAR-4 ovarian) of over 31.2 µM. The TGI (786-0 renal) was over 31.2 µM and the TGI (DMS 114 small cell lung) was over 31.2 µM.
Cc1ccc(NC(=O)CCC(CC(=O)C(C)(C)C)=NNC(=O)C(=O)NN)cc1C gave a TGI (SN12C renal) of over 100 µM, a TGI (M19-MEL melanoma) of over 100 µM and a TGI (HCC-2998 colon) of over 100 µM. For the same molecule, the TGI (COLO 205 colon) was over 100 µM, the TGI (OVCAR-4 ovarian) was over 100 µM and the TGI (786-0 renal) was over 100 µM. For the same molecule, the TGI (SK-MEL-2 melanoma) was over 100 µM.
CCOC12OC3=C(CC1CC1=C(CCC1=O)O2)C(=O)CC3 (configuration not stated) gave a TGI (HCT-116 colon) of over 100 µM, a TGI (SN12C renal) of over 100 µM and a TGI (M19-MEL melanoma) of over 100 µM. For the same molecule, the TGI (COLO 205 colon) was over 100 µM, the TGI (OVCAR-4 ovarian) was over 100 µM and the TGI (786-0 renal) was over 100 µM. It also gave a TGI (DMS 114 small cell lung) of over 100 µM and a TGI (SK-MEL-2 melanoma) of over 100 µM.
With COc1cc2nc3sc(C(=O)Nc4ccc(C(=O)OC(C)C)cc4)c(C(=O)Nc4ccc(Cl)cc4C)n3c(=O)c2cc1OC the GI50 (HCT-116 colon) was 11.3 µM, the TGI (HCT-116 colon) was over 100 µM and the GI50 (SN12C renal) was 22.8 µM. It also gave a TGI (SN12C renal) of 71.1 µM, a GI50 (HCC-2998 colon) of 9.5 µM and a TGI (HCC-2998 colon) of over 100 µM. For the same molecule, the GI50 (COLO 205 colon) was 7.02 µM, the TGI (COLO 205 colon) was 51.9 µM and the GI50 (OVCAR-4 ovarian) was 11.2 µM. It also gave a TGI (OVCAR-4 ovarian) of over 100 µM, a GI50 (MCF7 breast) of 14.1 µM and a TGI (MCF7 breast) of over 100 µM. It also gave a GI50 (786-0 renal) of 5.17 µM, a TGI (786-0 renal) of 28 µM and a GI50 (SK-MEL-2 melanoma) of over 100 µM. For the same molecule, the TGI (SK-MEL-2 melanoma) was over 100 µM.
Work on O=[N+]([O-])c1ccc(Br)c([N+](=O)[O-])c1 yielded a GI50 (HCT-116 colon) of 2.09 µM, a TGI (HCT-116 colon) of 5.02 µM and a GI50 (SN12C renal) of 2.37 µM. It also gave a TGI (SN12C renal) of 5.68 µM, a GI50 (HCC-2998 colon) of 4.73 µM and a TGI (HCC-2998 colon) of 16.7 µM. For the same molecule, the GI50 (COLO 205 colon) was 1.72 µM, the TGI (COLO 205 colon) was 3.32 µM and the GI50 (OVCAR-4 ovarian) was 1.72 µM. For the same molecule, the TGI (OVCAR-4 ovarian) was 3.19 µM, the GI50 (MCF7 breast) was 1.9 µM and the TGI (MCF7 breast) was 4.75 µM. The GI50 (786-0 renal) was 3.35 µM, the TGI (786-0 renal) was 10.9 µM and the GI50 (SK-MEL-2 melanoma) was 3.23 µM. It also gave a TGI (SK-MEL-2 melanoma) of 10.3 µM.
Work on O=S(=O)(O)O.[NH-]C1CCCCC1[NH-].[Pt+2] (configuration not stated) yielded a GI50 (HCT-116 colon) of 43.4 µM, a TGI (HCT-116 colon) of over 100 µM and a GI50 (SN12C renal) of over 100 µM. For the same molecule, the TGI (SN12C renal) was over 100 µM, the GI50 (M19-MEL melanoma) was over 100 µM and the TGI (M19-MEL melanoma) was over 100 µM. The GI50 (HCC-2998 colon) was over 100 µM, the TGI (HCC-2998 colon) was over 100 µM and the GI50 (COLO 205 colon) was over 100 µM. The TGI (COLO 205 colon) was over 100 µM, the GI50 (OVCAR-4 ovarian) was 67.2 µM and the TGI (OVCAR-4 ovarian) was over 100 µM. The GI50 (786-0 renal) was 40.7 µM, the TGI (786-0 renal) was over 100 µM and the GI50 (SK-MEL-2 melanoma) was over 100 µM. It also gave a TGI (SK-MEL-2 melanoma) of over 100 µM.
In the case of COc1ccc(-c2[nH]c3ccccc3c2C=C(C#N)C#N)cc1, the GI50 (HCT-116 colon) is reported as 0.41 µM, the TGI (HCT-116 colon) is reported as over 21.1 µM and the GI50 (SN12C renal) is reported as 1.15 µM. For the same molecule, the TGI (SN12C renal) was over 100 µM, the GI50 (HCC-2998 colon) was 0.67 µM and the TGI (HCC-2998 colon) was 3.16 µM. For the same molecule, the GI50 (COLO 205 colon) was 0.223 µM, the TGI (COLO 205 colon) was 0.533 µM and the GI50 (OVCAR-4 ovarian) was 0.797 µM. It also gave a TGI (OVCAR-4 ovarian) of over 100 µM, a GI50 (MCF7 breast) of 0.346 µM and a TGI (MCF7 breast) of over 100 µM. For the same molecule, the GI50 (786-0 renal) was 0.715 µM, the TGI (786-0 renal) was over 32.1 µM and the TGI (SK-MEL-2 melanoma) was over 100 µM.
COc1ccc(CCN2C(=O)C=CC2=O)cc1OC showed a TGI (HCT-116 colon) of 11.2 µM, a TGI (SN12C renal) of 32.5 µM and a TGI (HCC-2998 colon) of 34.8 µM. It also gave a TGI (COLO 205 colon) of 3.54 µM, a TGI (OVCAR-4 ovarian) of 5.07 µM and a TGI (MCF7 breast) of 39.7 µM. It also gave a TGI (786-0 renal) of 8.15 µM and a TGI (SK-MEL-2 melanoma) of 14.8 µM.

Source: PubChem BioAssay (NCI)
